Tests used:
[1] = molecular target: T1, rec. HDAC-1 purified from HEK 293 cells (Homo sapiens, UniProt Q13547); experiment: Assay for inhibition of histone deacetylase (HDAC), quenched peptide / Lys C fluorescence; type: biochemical; conditions: 10 concentrations starting at 30 uM, 90 min incubation
T1 construct: made in house; host or cells: HEK 293 cells
Source text: A) Assay for Inhibition of Histone Deacetylase (HDAC)
HDAC deacetylates lysines in histone H4. A 17 aa peptide with TAMRA at the C-terminus and QSY7 at the N-terminus was used as a substrate. Following deacetylation by HDAC the enzyme Lys C is able to cleave the peptide resulting in disappearence of the quench effect and a high signal. Inhibition of HDAC by compounds results in low signals because Lys C has no substrate for cleaving and the quench effect persists.
For dose response curves 10 concentrations were diluted starting at 30 uM. 10 ul compound dilution were put into each well of a 384 well plate. 10 ul HDAC (rec. HDAC-1 purified from HEK 293 cells; activity was assessed for each preparation) were added. 10 ul peptide was added (1 uM final concentration). After 90 min incubation at room temperature the reaction was stopped by addition of 20 ul test buffer including 3 ug/ml Lys C and 0.075% SDS. After overnight incubation the fluorescent signal of TAMRA was measured at absorption 544 nm, emission 590 nm by Victor 2.

[2] = test system: E-cadherin expression in A549; experiment: E-cadherin upregulation assay (ELISA, with WST-1 proliferation in the same well); type: cell-based; conditions: A549 human lung carcinoma cells; % proliferation subtracted from % E-cadherin expression; 10 concentrations starting at 40 uM; read-out: E-cadherin upregulation EC50 [μM] (Assay B)
Source text: B) E-cadherin Upregulation Assay
E-cadherin as an adhesion molecule is important for connection of the cells and integrity of tissues. […] Upregulation of the protein in cells where there is insufficient E-cadherin is regarded as a marker for the differentiation of the tumor cell. This corresponds to leaving the undifferentiated tumor cell status.
The compounds described are able to upregulate expression of E-cadherin in A549. In parallel, the proliferation of the cells is examined. The activity of an E-cadherin upregulator is defined as an increase in E-cadherin expression determined by an ELISA. Cell proliferation is also determined by WST-1 in the same well.
The assay was performed in 384-well format. […] 5000 cells per well were seeded in culture medium with 10% FCS at day 1. At day 2 compounds in different concentrations starting at 40 uM were added at a final concentration of DMSO of 0.5%. At day 4, WST-1 reagent was added and absorption was measured after 45 min (450 nm/690 nm).
The medium was aspirated, 100 ul fixation solution was added per well and discarded after 30 min, followed by addition of 100 ul blocking solution. […] Absorption was measured at 405 nm.
% proliferation of cells is substracted from % E-cadherin expression resulting in Delta. The dose response curve resulting from 10 concentrations was calculated using XLfit. […]

[3] = test system: SW620 colon carcinoma cells; experiment: SW620 colon carcinoma xenograft in nude mice, tumor volume; type: in vivo, Balb/C nu/nu-mice; conditions: oral, once daily, day 8 to day 27
Method: Female Balb/C nu/nu-mice(n=12 per group), aged 8-10 weeks, were subcutaneously injected with […] SW620 colon carcinoma cells. On day 6, animals with tumor volumes of about 200 mm^3 were randomly assigned to treatment groups. The test compound was administered as a fine suspension in 0.5% methylcellulose with an application volume of 10 ml/kg based on actual body weights. Oral treatment started on day 8 and continued through to day 27 on a once daily, 7 times per week treatment schedule.
The volume of the tumor was determined from the following equation:
Volume of a tumor=½×(major axis)×(minor axis)2

T1 sequence (Q13547 whole entry): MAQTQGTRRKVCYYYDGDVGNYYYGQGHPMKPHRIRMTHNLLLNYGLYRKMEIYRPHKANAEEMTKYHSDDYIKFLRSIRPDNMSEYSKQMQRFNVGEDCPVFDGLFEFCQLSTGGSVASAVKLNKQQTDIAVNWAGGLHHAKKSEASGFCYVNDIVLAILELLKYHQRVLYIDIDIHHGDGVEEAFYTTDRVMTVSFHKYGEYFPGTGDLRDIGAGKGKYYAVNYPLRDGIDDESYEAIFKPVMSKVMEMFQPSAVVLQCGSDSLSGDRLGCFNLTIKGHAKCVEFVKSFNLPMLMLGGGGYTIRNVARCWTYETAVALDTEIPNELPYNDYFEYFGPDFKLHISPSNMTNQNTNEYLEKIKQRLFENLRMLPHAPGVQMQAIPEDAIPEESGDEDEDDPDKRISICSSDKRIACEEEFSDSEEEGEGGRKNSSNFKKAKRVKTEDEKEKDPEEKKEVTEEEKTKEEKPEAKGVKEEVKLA

Nc1ccccc1NC(=O)c1cscn1 [Compound 38, Thiazole-4-carboxylic acid (2-amino-phenyl)-amide] was tested, and the IC50 [1] was 11.1 µM, the EC50 [2] was 5.9 µM and the “Tumor volume (mm^3)” value ([3]; end of the study, female Balb/C nu/nu mice with s.c. SW620 tumors) was 1029.0 mm^3. The “% inhibition vs. control” value ([3]; tumor volume at the end of the study, SW620 xenograft) was 53%.
